# US20240409585A1, “MACROCYCLIC IMMUNOMODULATORS” (priority 2021, published 2024)
# Bridge positions count the residues as written; N and C are the ends. Square brackets hold non-standard residues; d marks the D form. Peptide text beside a SMILES is read from it. * marks the point of attachment. ξ: configuration not given here. Phe(4-COOH) = N[C@@H](Cc1ccc(C(=O)O)cc1)C(=O)O; Phe(4-CH2NH2) = NCc1ccc(C[C@H](N)C(=O)O)cc1; Bip = N[C@@H](Cc1ccc(-c2ccccc2)cc1)C(=O)O; Phe(3-Me) = Cc1cccc(C[C@H](N)C(=O)O)c1; Val(3-OH) = CC(C)(O)[C@H](N)C(=O)O; 4Pal = N[C@@H](Cc1ccncc1)C(=O)O; Cha = N[C@@H](CC1CCCCC1)C(=O)O; Cit = NC(=O)NCCC[C@H](N)C(=O)O; Ile(3ξ) = CCC(C)[C@H](N)C(=O)O; Thr(3ξ) = CC(O)[C@H](N)C(=O)O; Carboxymethyl = O=C(O)C*; NMeA = CN[C@@H](C)C(=O)O; Orn = NCCC[C@H](N)C(=O)O; Dab = NCC[C@H](N)C(=O)O; Dap = NC[C@H](N)C(=O)O
# Target: T1, PE-labeled human PD-L1-Ig binding to Jurkat cell line over-expressing human PD-1 (Jurkat-PD-1) (Homo sapiens, UniProt Q15116)
# T1 construct: expressed in transfected cells; host or cells: Jurkat
# Experiment: Jurkat-PD-1 Cell Binding High-Content Screening Assay (CBA): Method 1
# Details: Jurkat-hPD-1 cells, PE-labeled PD-L1-Ig 20 nM final; read-out: Jurkat HPDL1 PD1 IC50 (uM) (Method 1)
# T1 sequence (Q15116 25-288): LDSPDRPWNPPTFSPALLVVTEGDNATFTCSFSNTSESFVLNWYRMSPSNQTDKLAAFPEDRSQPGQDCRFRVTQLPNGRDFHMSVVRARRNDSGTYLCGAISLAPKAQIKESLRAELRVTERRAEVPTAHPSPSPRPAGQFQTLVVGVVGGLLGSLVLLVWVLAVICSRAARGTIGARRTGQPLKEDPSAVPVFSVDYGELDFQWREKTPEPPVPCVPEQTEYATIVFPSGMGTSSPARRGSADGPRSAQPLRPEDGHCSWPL
row,Compound,IC50 [µM]
1,CC(C)C[C@@H]1NC(=O)[C@H](CCCN)NC(=O)[C@@H](CC(C)C)NC(=O)[C@H](C)N(C)C(=O)[C@H](CCCNC(=N)N)NC(=O)[C@H](Cc2ccc(-c3ccccc3)cc2)NC(=O)[C@H](C(C)C)NC(=O)[C@H](Cc2c[nH]c3ccccc23)NC(=O)[C@H](CC(=O)O)NC(=O)[C@H](Cc2ccc(C(=O)O)cc2)NC(=O)[C@H](Cc2ccccc2)NC(=O)CSC[C@@H](C(=O)N[C@@H](C)C(N)=O)NC(=O)[C@H]([C@@H](C)O)NC(=O)[C@H](C(C)C)NC1=O [Compound 1156] ({CH2CO}-F[Phe(4-COOH)]DWV[Bip]R[NMeA][dL][Orn]LVTCA-NH2; thioether N-14),0.03
2,Cc1cccc(C[C@@H]2NC(=O)[C@H](CC(=O)O)NC(=O)[C@H](Cc3ccc(OCC(=O)O)cc3)NC(=O)[C@H](Cc3cnc[nH]3)NC(=O)CSC[C@@H](C(=O)N[C@H](C)C(N)=O)NC(=O)[C@H](CO)NC(=O)[C@H](C(C)(C)O)NC(=O)[C@H](CC3CCCCC3)NC(=O)[C@H](CCN)NC(=O)[C@@H](CC(C)C)NC(=O)[C@H](C)N(C)C(=O)[C@H](Cc3ccc(OCC(=O)O)cc3)NC(=O)[C@H](Cc3ccc(-c4ccccc4)cc3)NC(=O)[C@H](Cc3ccc(C(=O)O)cc3)NC2=O)c1 [Compound 2182] ({CH2CO}-HY(Carboxymethyl)D[Phe(3-Me)][Phe(4-COOH)][Bip]Y(Carboxymethyl)[NMeA][dL][Dab][Cha][Val(3-OH)]SC[dA]-NH2; thioether N-14),0.09
3,CC(C)C[C@@H]1NC(=O)[C@H](Cc2c[nH]c3ccccc23)NC(=O)[C@H](CC(=O)O)NC(=O)[C@H](Cc2ccc(O)cc2)NC(=O)[C@H](CC(N)=O)NC(=O)CSC[C@@H](C(=O)N[C@@H](C)C(N)=O)NC(=O)[C@H](CO)NC(=O)[C@H](C(C)C)NC(=O)[C@H](CC(C)C)NC(=O)[C@H](CCN)NC(=O)[C@@H](C)NC(=O)[C@H](C)N(C)C(=O)[C@H](CCCNC(=N)N)NC(=O)[C@H](Cc2ccc(-c3ccccc3)cc2)NC1=O [Compound 1758] ({CH2CO}-NYDWL[Bip]R[NMeA][dA][Dab]LVSCA-NH2; thioether N-14),0.03
4,CC(C)C[C@@H]1NC(=O)[C@H](CCN)NC(=O)[C@@H](CC(C)C)NC(=O)[C@H](C)N(C)C(=O)[C@H](CCCN)NC(=O)[C@H](Cc2ccc(-c3ccccc3)cc2)NC(=O)[C@H](C(C)C)NC(=O)[C@H](Cc2c[nH]c3ccccc23)NC(=O)[C@H](CC(=O)O)NC(=O)[C@H](Cc2ccc(OCC(=O)O)cc2)NC(=O)[C@H](CC(N)=O)NC(=O)CSC[C@@H](C(=O)N[C@@H](C)C(N)=O)NC(=O)[C@H]([C@@H](C)O)NC(=O)[C@H](C(C)C)NC1=O [Compound 1387] ({CH2CO}-NY(Carboxymethyl)DWV[Bip][Orn][NMeA][dL][Dab]LVTCA-NH2; thioether N-14),0.03
5,CC(C)C[C@@H]1NC(=O)[C@H](CCN)NC(=O)[C@@H](CC(C)C)NC(=O)[C@H](C)N(C)C(=O)[C@H](CCCN)NC(=O)[C@H](Cc2ccc(-c3ccccc3)cc2)NC(=O)[C@H](C(C)C)NC(=O)[C@H](Cc2c[nH]c3ccccc23)NC(=O)[C@H](CC(=O)O)NC(=O)[C@H](Cc2ccc(O)cc2)NC(=O)[C@H](CN)NC(=O)CSC[C@@H](C(=O)N[C@@H](C)C(N)=O)NC(=O)[C@H](C(C)O)NC(=O)[C@H](C(C)C)NC1=O (stereo partly drawn) [Compound 2080] ({CH2CO}-[Dap]YDWV[Bip][Orn][NMeA][dL][Dab]LV[Thr(3ξ)]CA-NH2; thioether N-14),0.15
6,CCC(C)[C@@H]1NC(=O)[C@H](Cc2ccc(-c3ccccc3)cc2)NC(=O)[C@H](C(C)C)NC(=O)[C@H](Cc2c[nH]c3ccccc23)NC(=O)[C@H](CC(=O)O)NC(=O)[C@H](Cc2ccc(O)cc2)NC(=O)[C@H](Cc2ccncc2)NC(=O)CSC[C@@H](C(=O)N[C@@H](C)C(N)=O)NC(=O)[C@H](C(C)O)NC(=O)[C@H](C(C)C)NC(=O)[C@H](CC2CCCCC2)NC(=O)[C@H](Cc2ccc(CN)cc2)NC(=O)[C@@H](CC(C)C)NC(=O)[C@H](C)N(C)C1=O (stereo partly drawn) [Compound 2049] ({CH2CO}-[4Pal]YDWV[Bip][Ile(3ξ)][NMeA][dL][Phe(4-CH2NH2)][Cha]V[Thr(3ξ)]CA-NH2; thioether N-14),0.09
7,CC(C)C[C@@H]1NC(=O)[C@H](Cc2c[nH]c3ccccc23)NC(=O)[C@H](CC(=O)O)NC(=O)[C@H](Cc2ccc(OCC(=O)O)cc2)NC(=O)[C@H](Cc2ccccc2)NC(=O)CSC[C@@H](C(=O)N[C@@H](C)C(N)=O)NC(=O)[C@H](CO)NC(=O)[C@H](C(C)C)NC(=O)[C@H](CC(C)C)NC(=O)[C@H](CC(N)=O)NC(=O)[C@@H](CC(C)C)NC(=O)[C@H](C)N(C)C(=O)[C@H](CC(=O)O)NC(=O)[C@H](Cc2ccc(-c3ccccc3)cc2)NC1=O [Compound 2029] ({CH2CO}-FY(Carboxymethyl)DWL[Bip]D[NMeA][dL]NLVSCA-NH2; thioether N-14),0.04
8,CC(C)C[C@@H]1NC(=O)[C@H](CCCCN)NC(=O)[C@@H](CC(C)C)NC(=O)[C@H](C)N(C)C(=O)[C@H](CCCNC(=N)N)NC(=O)[C@H](Cc2ccc(-c3ccccc3)cc2)NC(=O)[C@H](C(C)C)NC(=O)[C@H](Cc2c[nH]c3ccccc23)NC(=O)[C@H](CC(=O)O)NC(=O)[C@H](Cc2ccc(O)cc2)NC(=O)[C@H](Cc2ccccc2)NC(=O)CSC[C@@H](C(=O)N[C@@H](CCC(=O)O)C(N)=O)NC(=O)[C@H]([C@@H](C)O)NC(=O)[C@H](C(C)C)NC1=O [Compound 1168] ({CH2CO}-FYDWV[Bip]R[NMeA][dL]KLVTCE-NH2; thioether N-14),0.12
9,Cc1cccc(C[C@@H]2NC(=O)[C@H](CC(=O)O)NC(=O)[C@H](Cc3ccc(OCC(=O)O)cc3)NC(=O)[C@H](Cc3ccncc3)NC(=O)CSC[C@@H](C(=O)N[C@@H](CCN)C(N)=O)NC(=O)[C@H](CO)NC(=O)[C@H](C(C)(C)O)NC(=O)[C@H](CC3CCCCC3)NC(=O)[C@H](CCN)NC(=O)[C@@H](CC(C)C)NC(=O)[C@H](C)N(C)C(=O)[C@H](CCCNC(N)=O)NC(=O)[C@H](Cc3ccc(-c4ccccc4)cc3)NC(=O)[C@H](Cc3ccc(OCC(=O)O)cc3)NC2=O)c1 [Compound 2201] ({CH2CO}-[4Pal]Y(Carboxymethyl)D[Phe(3-Me)]Y(Carboxymethyl)[Bip][Cit][NMeA][dL][Dab][Cha][Val(3-OH)]SC[Dab]-NH2; thioether N-14),0.01
10,Cc1cccc(C[C@@H]2NC(=O)[C@H](CC(=O)O)NC(=O)[C@H](Cc3ccc(OCC(=O)O)cc3)NC(=O)[C@H](Cc3ccncc3)NC(=O)CSC[C@@H](C(N)=O)NC(=O)[C@H](CC(N)=O)NC(=O)[C@H](C(C)C)NC(=O)[C@H](CC3CCCCC3)NC(=O)[C@H](CCN)NC(=O)[C@@H](CC(C)C)NC(=O)[C@H](C)N(C)C(=O)[C@H](Cc3ccc(OCC(=O)O)cc3)NC(=O)[C@H](Cc3ccc(-c4ccccc4)cc3)NC(=O)[C@H](Cc3ccc(OCC(=O)O)cc3)NC2=O)c1 [Compound 1663] ({CH2CO}-[4Pal]Y(Carboxymethyl)D[Phe(3-Me)]Y(Carboxymethyl)[Bip]Y(Carboxymethyl)[NMeA][dL][Dab][Cha]VNC-NH2; thioether N-14),0.01
11,CC(C)C[C@@H]1NC(=O)[C@H](Cc2c[nH]c3ccccc23)NC(=O)[C@H](CC(=O)O)NC(=O)[C@H](Cc2ccc(O)cc2)NC(=O)[C@H](Cc2ccccc2)NC(=O)CSC[C@@H](C(=O)NCC(N)=O)NC(=O)[C@H](CO)NC(=O)[C@H](C(C)C)NC(=O)[C@H](CC(C)C)NC(=O)[C@H](CC(N)=O)NC(=O)[C@@H](CCC(N)=O)NC(=O)[C@H](C)N(C)C(=O)[C@H](C(C)C)NC(=O)[C@H](Cc2ccc(-c3ccccc3)cc2)NC1=O [Compound 1784] ({CH2CO}-FYDWL[Bip]V[NMeA][dQ]NLVSCG-NH2; thioether N-14),0.09
